This data set can be described thus: confirmatory test of the sublimation. It is filed as physicochemical. The settings on record: 100 mg compound mixed with 2 g resin of acid value 19 mg KOH/g in crucible, heated at 190 degrees centigrade for 1 hour. On the procedure:
Subsequently, the confirmatory test of the sublimation of the monoazo compound was performed. 100 mg of the monoazo compound and 2 g of the resin having 19 mg KOH/g of the acid value were added into a 25 mL crucible, and mixed. A filter paper was put on the crucible. After the bottom of crucible was heated at 190 degrees centigrade for 1 hour, an under side of the filter paper was observed.
Subsequently, the confirmatory test of the sublimation of the monoazo metals-compound was performed. 100 mg of the metals-compound and 2 g of the resin having 19 mg KOH/g of the acid value are added and mixed into a 25 mL crucible. A filter paper was put on the crucible. After the bottom of the crucible was heated at 190 degrees centigrade for 1 hour, the under side of the filter paper was observed.

Turning to `COC(=O)Nc1cccc2ccc(O)c(N=Nc3cc(Cl)ccc3O)c12` [I-1], the “sublimation property (accretions of sublimates on under side of filter paper)” value is “no sublimation property”.

The record behind these values is patent publication US7413837B2, “Charge control agent and toner for electrostatic image development containing the same” (Orient Chemical Industries, Ltd., priority 2002, dated 2008).
